From patent US9302999B2, “Substituted triazoles as herbicides” (E. I. DU PONT DE NEMOURS AND COMPANY, priority 2012, dated 2016) come the findings set out here.

Assay [1] deals with Oilseed Rape. The assay is described as follows: Test C preemergence: oilseed rape. It is filed as in vivo. The conditions noted are these: scale of 0 to 100, 0 is no effect, 100 is complete control.
Assay [2] deals with Barnyardgrass. Description: Test C postemergence: barnyardgrass. It is filed as in vivo, Echinochloa crus-galli. The essentials:
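Response values are visual ratings, 0 (no effect) to 100 (complete control), made by comparison with untreated controls 13 to 15 days after postemergence treatment of greenhouse-grown potted plants that were 2 to 18 cm high at spraying.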

In assay [3] the test system is Barnyardgrass. The assay is described as follows: Test C postemergence: barnyardgrass. The conditions noted are these: 125 g ai/ha, scale 0 to 100, 0 no effect, 100 complete control. It is filed as in vivo, Echinochloa crus-galli.
For assay [4], the system named is Oilseed Rape. Description: Test C postemergence: oilseed rape. It counts as in vivo, Brassica napus.
The test system of assay [5] is Waterhemp. The assay is described as follows: Test C postemergence: waterhemp. It is filed as in vivo, Amaranthus rudis.
The test system of assay [6] is Barnyardgrass. The assay is described as follows: Test C preemergence: barnyardgrass. It counts as in vivo, Echinochloa crus-galli.
Assay [7] concerns barnyardgrass (Echinochloa crus-galli). Description: Test C pre-/postemergence: barnyardgrass. It counts as in vivo. The conditions noted are these: Preemergence, 250 g ai/ha; scale 0 to 100, 0 no effect, 100 complete control.
The test system of assay [8] is Oilseed Rape. Description: Test C pre-/postemergence: oilseed rape. It counts as in vivo.
Assay [9] concerns Waterhemp. The assay is described as follows: Test C pre-/postemergence: waterhemp. It counts as in vivo.
Setting [10] is: 31 g ai/ha, scale 0 to 100 (0 no effect, 100 complete control).
Where [11] appears, read: 62 g ai/ha, scale 0 to 100 (0 no effect, 100 complete control).
The mark [12] stands for this setting: 125 g ai/ha, scale 0 to 100, 0 no effect, 100 complete control.
Setting [13] is: 62 g ai/ha, scale of 0 to 100, 0 is no effect, 100 is complete control.
The mark [14] stands for this setting: Preemergence, 250 g ai/ha, scale 0 to 100, 0 no effect, 100 complete control.
[15] abbreviates: 250 g ai/ha, scale 0 to 100 (0 no effect, 100 complete control).
Where [16] appears, read: 31 g ai/ha, scale 0 (no effect) to 100 (complete control).
Where [17] appears, read: Postemergence, 31 g ai/ha, scale 0 to 100 (0 no effect, 100 complete control).

`CCc1nn(-c2ccc(C(F)(F)F)cc2)nc1Cc1ccnc(C(F)(F)F)c1` [Compound 155]: the “Plant response rating, Oilseed Rape” value in the assay with Oilseed Rape [1] (31 g ai/ha) was 50; with Oilseed Rape [1] (62 g ai/ha), 90; in the assay with Oilseed Rape [4] (setting [12]), 95; in the assay with Oilseed Rape [8] (setting [14]), 100. The “Plant response rating, Barnyardgrass” value in the assay with Barnyardgrass [2] (setting [10]) came to 25; in the assay with Barnyardgrass [2] (setting [11]), 35; in the assay with Barnyardgrass [2] (250 g ai/ha, scale 0 to 100), 75; in the assay on Barnyardgrass [3] it was 55; with Barnyardgrass [6] (31 g ai/ha, scale of 0 to 100, 0 is no effect, 100 is complete control), 40; in the assay with Barnyardgrass [6] (setting [13]), 90. In addition, the “Plant response rating, Barnyardgrass” value in the assay with Barnyardgrass [6] (setting [12]) is given as 98; in assay [7], 100. Besides, the “Plant response rating, Waterhemp” value is 98 with Waterhemp [5] (setting [12]) and 100 in the assay on Waterhemp [9] (setting [14]).
As for `CCCc1nn(-c2ccc(F)c(F)c2)nc1Oc1ccnc(C(F)(F)F)c1` [Compound 172], the “Plant response rating, Oilseed Rape” value in the assay with Oilseed Rape [1] (62 g ai/ha) is listed as 90; in the assay with Oilseed Rape [4] (setting [12]) it was 90; in the assay on Oilseed Rape [4] (setting [15]) it was 95; in the assay on Oilseed Rape [8] (setting [17]), 50; in the assay on Oilseed Rape [8] (setting [14]), 100. The “Plant response rating, Barnyardgrass” value with Barnyardgrass [2] (setting [10]) is listed as 40; in the assay with Barnyardgrass [2] (setting [11]), 45; with Barnyardgrass [2] (250 g ai/ha, scale 0 to 100), 90; in the assay on Barnyardgrass [3], 85; in the assay with Barnyardgrass [6] (setting [16]), 85; with Barnyardgrass [6] (setting [13]), 98. Also, the “Plant response rating, Barnyardgrass” value (with Barnyardgrass [6] (setting [12]); in [7]) was 100 in each case. The entries for the “Plant response rating, Waterhemp” value with Waterhemp [5] (setting [12]), in the assay with Waterhemp [5] (setting [15]) and in the assay with Waterhemp [9] (setting [17]) were 98, 98 and 90, respectively.
In the case of `CCc1nn(-c2ccc(F)c(F)c2)nc1Oc1ccnc(C(F)(F)F)c1` [Compound 171], the “Plant response rating, Oilseed Rape” value in the assay with Oilseed Rape [1] (62 g ai/ha) is recorded as 50; in the assay on Oilseed Rape [4] (setting [12]) it was 30; in the assay on Oilseed Rape [4] (setting [15]), 30; with Oilseed Rape [8] (setting [17]) it was 5; with Oilseed Rape [8] (setting [14]), 90. Besides, the “Plant response rating, Barnyardgrass” value in the assay with Barnyardgrass [2] (setting [10]) turned out to be 10; with Barnyardgrass [2] (setting [11]) it was 15; in the assay on Barnyardgrass [2] (250 g ai/ha, scale 0 to 100), 75; in the assay on Barnyardgrass [3] it was 60; in the assay on Barnyardgrass [6] (setting [16]), 5; in the assay with Barnyardgrass [6] (setting [13]) it was 75. The “Plant response rating, Barnyardgrass” value turned out to be 95 in the assay with Barnyardgrass [6] (setting [12]) and 98 in [7]. Further, the “Plant response rating, Waterhemp” value in the assay on Waterhemp [5] (setting [12]) was 75; with Waterhemp [5] (setting [15]) it was 98; in the assay with Waterhemp [9] (setting [17]) it was 70.
